Assay results from patent publication US11351170B2, “Substituted pyrimidines as CDK4/6 inhibitors” (priority 2017, dated 2022).
Several values for one entry are separate records, joined by “and”; a condition that tells them apart may be missing. Identical values can stand only once. Like-named read-outs stand apart in the source and are kept apart here.

Columns and labels:
[1] = molecular target: CDK4 (Homo sapiens (Human), UniProt P11802); experiment: CDK4 Inhibition Assay; type: biochemical
Experimental: (§1) CDK4 Inhibition Assay. […] The same volume of DMSO was adopted as high control (HC). 20 nL of compound solution in DMSO (diluted) were dispensed into anew 384-well assay plate by Echo 550. […] Kinase assay buffer supplemented with substrate peptides was employed as low control (LC) to monitor the background. 400 µM ATP was prepared in kinase assay buffer containing and 15 μL of ATP solution was added to each well to start the reaction. The assay plate was incubated at 25° C. for 90 minutes and the reaction was stopped by adding 40 μL of 0.5 M EDTA.
Phosphorylated fluorescent-tagged peptides were differentiated from non-phosphorylated peptides by separating using Caliper EZ Reader II and the detection was directly converted to conversion ratio (ratio of phosphorylated to non-phosphorylated peptide).
For estimation of IC50, the % substrate conversion values are transformed to % relative activity by applying the following equation: […]

[2] = molecular target: CDK5 (Homo sapiens (Human), UniProt Q00535); experiment: CDK5 Inhibition Assay; type: biochemical
Experimental: (§2) CDK5 Inhibition Assay. […] The same volume of DMSO was adopted as high control. 20 nL of the test compound solution in DMSO were dispensed into a new 384-well assay plate by Echo 550. […] Kinase assay buffer supplemented with substrate peptides was employed as low control to monitor the background. 40 µM ATP was prepared in kinase assay buffer containing and 5 μL of ATP solution was added to each well to start the reaction. The assay plate was incubated at 25° C. for 90 minutes and the reaction was stopped by adding 40 μL of 0.5 M EDTA.

[3] = molecular target: CDK6 (Homo sapiens (Human), UniProt Q00534); experiment: CDK6 Inhibition Assay; type: biochemical
Experimental: as §1, with “CDK6” for “CDK4”, “nL” for “nL of”, “a new” for “anew”

[4] = molecular target: CDK2 (Homo sapiens (Human), UniProt P24941); experiment: CDK2 Inhibition Assay; type: biochemical
Experimental: as §2, with “CDK2 Inhibition” for “CDK5 Inhibition”, “background. 400” for “background. 40”
Phosphorylated fluorescent-tagged peptides were differentiated from non-phosphorylated peptides by separating using Caliper EZ Reader II and the detection was directly converted to conversion ratio.

[5] = Metabolic stability in dog liver microsomes; type: in vitro ADME; details: dog liver microsomes 0.5 mg/mL
Experimental: (§3) Metabolic stability of compounds is assessed at […] with human, rat, mouse, dog, and monkey liver microsomes (0.5 mg/mL). Compound and protein are equilibrated at 37° C. for 5 min prior to reaction initiation with co-factor NADPH. […] After quenching and centrifugation, supernatants were analyzed by LC-MS with methods specific to compounds tested.

[6] = Metabolic stability in monkey liver microsomes; type: in vitro ADME; details: monkey liver microsomes 0.5 mg/mL
Experimental: as §3

[7] = Metabolic stability in human liver microsomes; type: in vitro ADME; details: human liver microsomes 0.5 mg/mL
Experimental: as §3

[8] = Metabolic stability in rat liver microsomes; type: in vitro ADME; details: rat liver microsomes 0.5 mg/mL
Experimental: as §3

[9] = Mouse pharmacokinetics (p.o. and i.v.)
Experimental: Blood samples were taken at 0.083, 0.25, 0.5, 1.0, 3.0, 6.0 and 24 hours post i.v. dosing and at 0.25, 0.5, 1.0, 3.0, 6.0 and 24 hours post p.o. dosing. The plasma concentration of compounds were determined by HPLC.

[10] = Metabolic stability in mouse liver microsomes; type: in vitro ADME; details: mouse liver microsomes 0.5 mg/mL
Experimental: as §3

[11] = system: HS68 cells; details: HS68 cells treated for 24 hours
Experimental: HS68 cells (human skin fibroblast cell line, ATCC) were treated for 24 hours with compounds of the present invention at 0, 1, 3, 10, 30, 100, 300, or 1,000 nmol/L final concentration. Cells were harvested and fixed in ice-cold 70% ethanol (Sigma-Aldrich). Fixed cells were washed with PBS, stained with 40 μg/mL propidium iodide (Thermofisher Scientific), 10 g RNAseA (Sigma-Aldrich) in PBS-CMF (calcium magnesium free). Samples were processed using flow cytometer (Fisher), and cell-cycle analysis was completed using FlowJo software (Tree Star).

[12] = system: HSPCs; details: CDK4/6 dependent subsets of healthy cells such as HSPCs; cited from earlier work

Sequence of CDK4 (P11802 whole entry): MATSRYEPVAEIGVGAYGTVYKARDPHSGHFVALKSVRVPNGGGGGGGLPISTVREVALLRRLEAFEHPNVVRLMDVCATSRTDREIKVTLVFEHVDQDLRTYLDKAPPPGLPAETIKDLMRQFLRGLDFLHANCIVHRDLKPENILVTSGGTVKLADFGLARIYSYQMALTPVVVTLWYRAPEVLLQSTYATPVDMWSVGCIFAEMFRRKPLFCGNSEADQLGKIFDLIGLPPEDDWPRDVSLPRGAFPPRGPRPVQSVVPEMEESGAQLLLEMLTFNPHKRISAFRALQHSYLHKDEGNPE
Sequence of CDK4 (P30281 whole entry partner): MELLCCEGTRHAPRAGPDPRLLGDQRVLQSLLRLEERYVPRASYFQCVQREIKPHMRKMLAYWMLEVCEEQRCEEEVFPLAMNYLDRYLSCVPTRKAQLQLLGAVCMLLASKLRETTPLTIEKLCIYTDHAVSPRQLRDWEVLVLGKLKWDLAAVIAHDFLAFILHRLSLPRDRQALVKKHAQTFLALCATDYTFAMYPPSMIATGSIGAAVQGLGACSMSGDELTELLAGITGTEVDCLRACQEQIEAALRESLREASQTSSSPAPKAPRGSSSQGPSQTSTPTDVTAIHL
Sequence of CDK6 (Q00534 whole entry): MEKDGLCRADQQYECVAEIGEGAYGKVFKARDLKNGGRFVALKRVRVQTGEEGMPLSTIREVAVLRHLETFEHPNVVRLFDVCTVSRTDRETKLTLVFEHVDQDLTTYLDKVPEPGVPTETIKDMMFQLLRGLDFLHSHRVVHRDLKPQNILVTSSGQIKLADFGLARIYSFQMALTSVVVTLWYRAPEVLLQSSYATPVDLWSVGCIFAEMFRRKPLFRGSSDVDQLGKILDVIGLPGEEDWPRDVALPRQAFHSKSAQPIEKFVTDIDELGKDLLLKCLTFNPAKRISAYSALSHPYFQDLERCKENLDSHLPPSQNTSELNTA
Sequence of CDK6 (P30281 whole entry partner): as the sequence (P30281 whole entry partner) above
Sequence of CDK5 (Q00535 whole entry): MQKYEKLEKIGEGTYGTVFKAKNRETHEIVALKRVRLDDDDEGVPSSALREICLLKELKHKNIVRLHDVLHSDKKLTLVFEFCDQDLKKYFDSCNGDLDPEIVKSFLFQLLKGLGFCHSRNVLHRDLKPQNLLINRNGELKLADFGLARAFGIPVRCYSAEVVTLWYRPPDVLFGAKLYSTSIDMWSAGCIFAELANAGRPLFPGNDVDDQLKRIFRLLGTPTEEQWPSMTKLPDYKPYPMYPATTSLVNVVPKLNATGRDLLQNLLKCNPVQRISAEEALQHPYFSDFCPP
Sequence of CDK5 (Q15078 99-307 partner): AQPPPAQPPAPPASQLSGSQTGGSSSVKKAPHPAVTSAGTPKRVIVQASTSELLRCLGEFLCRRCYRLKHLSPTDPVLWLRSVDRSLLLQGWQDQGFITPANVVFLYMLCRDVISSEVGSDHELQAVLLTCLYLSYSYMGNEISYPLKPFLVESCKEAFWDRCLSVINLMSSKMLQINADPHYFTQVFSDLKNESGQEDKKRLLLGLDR

Compound | IC50 [1] [nM] | IC50 [2] [nM] | IC50 [3] [nM] | IC50 ([4]; read-out: CDK2 IC50) | other results
CCN1CCC(c2ccc(Nc3ncc(F)c(-c4cc(F)c5nc6n(c5c4)C(C)(C)CC6)n3)nc2)CC1 [Example 3, N-(5-(1-ethylpiperidin-4-yl)pyridin-2-yl)-5-fluoro-4-(5-fluoro-1,1-dimethyl-2,3-dihydro-1H-benzo[d]pyrrolo[1,2-a]imidazol-7-yl)pyrimidin-2-amine, reference compound] | 0.08 | 38.3 | 1.93 | 114 nM and 91 nM | 
CC1(C)CCc2nc3c(F)cc(-c4nc(Nc5ccc6c(n5)CCN(C(=O)CO)C6)ncc4F)cc3n21 [Example 5, 1-(2-(5-fluoro-4-(5-fluoro-1,1-dimethyl-2,3-dihydro-1H-benzo[d]pyrrolo[1,2-a]imidazol-7-yl)pyrimidin-2-ylamino)-7,8-dihydro-1,6-naphthyridin-6 (5H)-yl)-2-hydroxyethanone, reference compound] | 0.12 | 36.8 | 1.87 | 17.6 nM | 
CN(C)[C@H]1CCN(C(=O)c2ccc(Nc3ncc(F)c(-c4cc(F)c5nc6n(c5c4)C(C)(C)CC6)n3)nc2)C1 [Example 6, (S)-(3-(dimethylamino)pyrrolidin-1-yl)(6-(5-fluoro-4-(5-fluoro-1,1-dimethyl-2,3-dihydro-1H-benzo[d]pyrrolo[1,2-a]imidazol-7-yl)pyrimidin-2-ylamino)pyridin-3-yl)methanone] | 0.2 | 19.1 | 1.19 | 20.4 nM | IC50 [4]: 5.62 nM
CN(C)[C@H]1CCN(c2ccc(Nc3ncc(F)c(-c4cc(F)c5nc6n(c5c4)C(C)(C)CC6)n3)nc2)C1 [Example 7, (S)—N-(5-(3-(dimethylamino)pyrrolidin-1-yl)pyridin-2-yl)-5-fluoro-4-(5-fluoro-1,1-dimethyl-2,3-dihydro-1H-benzo[d]pyrrolo[1,2-a]imidazol-7-yl)pyrimidin-2-amine] | 0.18 | 50.6 | 3.96 | 65.5 nM | IC50 [4]: 16.1 nM
CCN1CCC(COc2ccc(Nc3ncc(F)c(-c4cc(F)c5nc6n(c5c4)C(C)(C)CC6)n3)nc2)CC1 [Example 8, N-(5-((1-ethylpiperidin-4-yl)methoxy)pyridin-2-yl)-5-fluoro-4-(5-fluoro-1,1-dimethyl-2,3-dihydro-1H-benzo[d]pyrrolo[1,2-a]imidazol-7-yl)pyrimidin-2-amine] |  | 705 |  | 368 nM | half-life ([5]; NADPH, 37° C.): 0.402 h; CLint scaled ([5]; scaled): 143 mL/min/kg; half-life ([6]; NADPH, 37° C.): 0.223 h; CLint scaled ([6]; scaled): 151 mL/min/kg; half-life ([7]; NADPH, 37° C.): 1.34 h; CLint scaled ([7]; scaled): 21.7 mL/min/kg; half-life ([8]; NADPH, 37° C.): 1.29 h; CLint scaled ([8]; scaled): 32.2 mL/min/kg; F ([9]; 10 mg/kg p.o. vs 2 mg/kg i.v.): 45.6%; AUC(0-t) ([9]; plasma, iv, 2 mg/kg): 2110 ng·h/mL; Vd ([9]; plasma, iv, 2 mg/kg): 3.71 L/kg; clearance ([9]; plasma, iv, 2 mg/kg): 15.7 mL/min/kg; half-life ([9]; plasma, iv, 2 mg/kg): 3.36 h; AUC(0-t) ([9]; plasma, po, 10 mg/kg): 4820 ng·h/mL; Cmax ([9]; plasma, po, 10 mg/kg): 340 ng/mL; Tmax ([9]; plasma, po, 10 mg/kg): 6 h; IC50 [4]: 285 nM; half-life ([10]; NADPH, 37° C.): 0.45 h; CLint scaled ([10]; scaled): 202 mL/min/kg; G1 % (max) [11]: 79.35%
CCN1CCC(COc2ccc(Nc3cc(-c4cc(F)c5nc6n(c5c4)C(C)(C)CC6)c(F)cn3)nc2)CC1 [Example 9, N-(5-((1-ethylpiperidin-4-yl)methoxy)pyridin-2-yl)-5-fluoro-4-(5-fluoro-1,1-dimethyl-2,3-dihydro-1H-benzo[d]pyrrolo[1,2-a]imidazol-7-yl)pyridin-2-amine] | 0.1 | 11.3 | 2.9 | 24.7 nM | IC50 [4]: 14.7 nM
CN1CCC(Oc2ccc(Nc3ncc(F)c(-c4cc(F)c5nc6n(c5c4)C(C)(C)CC6)n3)nc2)CC1 [Example 10, 5-fluoro-4-(5-fluoro-1,1-dimethyl-2,3-dihydro-1H-benzo[d]pyrrolo[1,2-a]imidazol-7-yl)-N-(5-(1-methylpiperidin-4-yloxy)pyridin-2-yl)pyrimidin-2-amine] | 0.26 | 136 | 2.46 | 64.1 nM | 
CC1(C)CCc2nc3c(F)cc(-c4nc(Nc5ccc(OCC6CCN(CCCO)CC6)cn5)ncc4F)cc3n21 [Example 11, 3-(4-((6-(5-fluoro-4-(5-fluoro-1,1-dimethyl-2,3-dihydro-1H-benzo[d]pyrrolo[1,2-a]imidazol-7-yl)pyrimidin-2-ylamino)pyridin-3-yloxy)methyl)piperidin-1-yl)propan-1-ol] | 0.11 | 128 | 1.02 | 44.9 nM | 
CN1CCC(COc2ccc(Nc3ncc(F)c(-c4cc(F)c5nc6n(c5c4)C(C)(C)CC6)n3)nc2)CC1 [Example 12, 5-fluoro-4-(5-fluoro-1,1-dimethyl-2,3-dihydro-1H-benzo[d]pyrrolo[1,2-a]imidazol-7-yl)-N-(5-((1-methylpiperidin-4-yl)methoxy)pyridin-2-yl)pyrimidin-2-amine] | 0.11 | 159 | 1.89 | 55.2 nM | 
CN1CCC(OCc2ccc(Nc3ncc(F)c(-c4cc(F)c5nc6n(c5c4)C(C)(C)CC6)n3)nc2)CC1 [Example 13, 5-fluoro-4-(5-fluoro-1,1-dimethyl-2,3-dihydro-1H-benzo[d]pyrrolo[1,2-a]imidazol-7-yl)-N-(5-((1-methylpiperidin-4-yloxy)methyl)pyridin-2-yl)pyrimidin-2-amine] | 0.25 | 433 | 3.92 | 174 nM | 
CC1(C)CCc2nc3c(F)cc(-c4nc(Nc5ccc(OC6CCN(CCO)CC6)cn5)ncc4F)cc3n21 [Example 14, 2-(4-(6-(5-fluoro-4-(5-fluoro-1,1-dimethyl-2,3-dihydro-1H-benzo[d]pyrrolo[1,2-a]imidazol-7-yl)pyrimidin-2-ylamino)pyridin-3-yloxy)piperidin-1-yl)ethanol] | 0.25 | 213 | 2.72 | 70.3 nM | 
CCN1CCN(c2ccc(Nc3ncc(F)c(-c4cc(F)c5nc6n(c5c4)C(C)(C)CC6)n3)nc2)CC1 [Example 15, N-(5-(4-ethylpiperazin-1-yl)pyridin-2-yl)-5-fluoro-4-(5-fluoro-1,1-dimethyl-2,3-dihydro-1H-benzo[d]pyrrolo[1,2-a]imidazol-7-yl)pyrimidin-2-amine, reference compound] | 0.07 | 46.8 | 0.88 | 117 nM and 21.6 nM | 
CCN1CCN(Cc2ccc(Nc3ncc(F)c(-c4cc(F)c5nn6c(c5c4)CCC6)n3)nc2)CC1 [Example 16, N-(5-((4-ethylpiperazin-1-yl)methyl)pyridin-2-yl)-5-fluoro-4-(6-fluoro-2,3-dihydro-1H-pyrrolo[1,2-b]indazol-8-yl)pyrimidin-2-amine] | 9.46 | > 10000 | 93.7 | > 10000 nM | 
CN1CCN(c2ccc(Nc3ncc4cc5n(c4n3)C3(CCCCC3)CNC5=O)nc2)CC1 [Example G1T28] |  |  |  |  | cell cycle arrest [12]: transient cell cycle arrest
CC(=O)c1c(C)c2cnc(Nc3ccc(N4CCNCC4)cn3)nc2n(C2CCCC2)c1=O [PD-0332991] |  |  |  |  | cell cycle arrest [12]: transient cell cycle arrest
